Each compound was assayed against T1, human TLR8 (Homo sapiens, UniProt Q9NR97) (assay: SEAP reporter assay in HEK-Blue TLR8 cells, R848-induced TLR8 signaling). Conditions: not given.
T1 construct: expressed in transfected cells; host or cells: HEK-Blue Null1 cells, lentiviral infection
T1 sequence (Q9NR97 27-1041): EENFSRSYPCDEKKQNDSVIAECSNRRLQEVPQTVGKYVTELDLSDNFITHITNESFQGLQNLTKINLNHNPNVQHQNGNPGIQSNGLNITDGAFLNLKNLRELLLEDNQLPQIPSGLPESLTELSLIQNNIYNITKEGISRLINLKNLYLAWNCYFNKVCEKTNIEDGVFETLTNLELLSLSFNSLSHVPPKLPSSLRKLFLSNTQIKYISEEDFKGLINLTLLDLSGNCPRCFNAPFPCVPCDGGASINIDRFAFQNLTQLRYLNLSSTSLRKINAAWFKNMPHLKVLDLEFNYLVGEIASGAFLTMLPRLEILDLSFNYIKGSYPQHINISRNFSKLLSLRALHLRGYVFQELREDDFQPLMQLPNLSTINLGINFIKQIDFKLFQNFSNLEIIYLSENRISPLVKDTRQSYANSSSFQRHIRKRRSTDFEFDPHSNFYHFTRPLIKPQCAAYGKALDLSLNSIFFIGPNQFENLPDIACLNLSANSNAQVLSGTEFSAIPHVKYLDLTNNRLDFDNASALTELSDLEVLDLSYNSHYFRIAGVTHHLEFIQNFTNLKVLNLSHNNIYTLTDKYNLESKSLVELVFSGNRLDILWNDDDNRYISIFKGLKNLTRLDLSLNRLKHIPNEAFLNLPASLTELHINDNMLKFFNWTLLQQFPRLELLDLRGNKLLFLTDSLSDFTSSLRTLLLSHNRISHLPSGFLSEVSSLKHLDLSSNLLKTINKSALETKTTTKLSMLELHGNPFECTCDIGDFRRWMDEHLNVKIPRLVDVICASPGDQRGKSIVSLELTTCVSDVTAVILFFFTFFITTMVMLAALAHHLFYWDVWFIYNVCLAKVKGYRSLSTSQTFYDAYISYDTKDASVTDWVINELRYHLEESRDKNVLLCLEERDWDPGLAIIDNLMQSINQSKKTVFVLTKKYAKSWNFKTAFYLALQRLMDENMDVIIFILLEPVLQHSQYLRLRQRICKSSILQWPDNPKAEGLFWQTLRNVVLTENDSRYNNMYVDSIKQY
Type: cell-based
Method: SEAP reporter assay: HEK-Blue TLR8 cells were seeded in tissue culture treated 96-well plates with a density of 7.5×10^4 cells/well in DMEM media supplemented with 10% FBS (phosphatases deactivated with heat). […] Plates are then incubated in humidified incubators containing 5% CO2 at 37° C. for 24 h, after which, 30 μL of culture media was transfer to a new plate and 100 μL of Quanti-Blue (Invivogen) was added, the plate was then incubated at 37° C. till color change (30 min-1 h). Readout of absorbance at 620 nm was quantified using Beckman-Coulter DTX 880 Multimode Detector. […] SEAP assays for each sample were conducted with three biological replicates, each in triplicate.
To establish a robust high throughput assay for TLR8 inhibitors, the inventors first engineered a cell line stably overexpressing the human TLR8 whose activation can be reported by the Secreted Embryonic Alkaline Phosphatase (SEAP) assay. TLR8-overexpresing HEK-Blue cells were prepared by lentiviral infection of HEK-Blue Null1 cells that have null or low basal expression of endogenous TLR genes. […] The TLR8-mediated NF-κB activation can be assessed by measuring the SEAP activity.

Compound	IC50
Cc1cc(-c2ccnc3cc(Cl)ccc23)ccc1O [CU-CPT9c, 4-(7-Chloro-4-quinolinyl)-2-methyl-phenol]	1 ± 0.2 nM

Same assay, conditions: 1(2H)-phthalazinone and quinoline derivatives in HEK-Blue hTLR8 cells

Compound	IC50
COc1ccc(-c2ccc(O)c(C)c2)c2ccccc12 [Compound 1, 1-Methoxy-4-(4-hydroxy-3-methylphenyl)-naphthalene]	7030 ± 360 nM
Cc1cc(-c2ccc(O)c3ccccc23)ccc1O [Compound 2, 4-(4-Hydroxy-3-methylphenyl)-1-naphthol]	480 ± 430 nM
Cc1cc(-c2ccc(N)c3ccccc23)ccc1O [Compound 3, 1-Amino-4-(4-hydroxy-3-methylphenyl)-naphthalene]	2720 ± 310 nM
Cc1cc(-c2nn(C)c(=O)c3ccccc23)cc(C)c1O [Compound 4, 4-(4-Hydroxy-3,5-dimethylphenyl)-2-methyl-1(2H)-Phthalazinone]	170 ± 20 nM
O=c1[nH]nc(-c2ccccc2)c2ccccc12 [Compound 5, 4-Phenyl-1(2H)-phthalazinone]	> 20000 nM
Cn1nc(-c2ccccc2)c2ccccc2c1=O [Compound 6, 2-Methyl-4-phenyl-1(2H)-Phthalazinone]	> 20000 nM
Cc1ccc(C)c(-c2n[nH]c(=O)c3ccccc23)c1 [Compound 7, 4-(2,5-Dimethylphenyl)-1(2H)-Phthalazinone]	> 20000 nM
Cc1cc(C)cc(-c2n[nH]c(=O)c3ccccc23)c1 [Compound 8, 4-(3,5-Dimethylphenyl)-1(2H)-phthalazinone]	> 20000 nM
COc1ccc(-c2n[nH]c(=O)c3ccccc23)cc1 [Compound 9, 4-(4-Methoxyphenyl)-1(2H)-phthalazinone]	> 20000 nM
COc1ccc(-c2nn(C)c(=O)c3ccccc23)cc1 [Compound 10, 4-(4-Methoxyphenyl)-2-methyl-1(2H)-phthalazinone]	> 20000 nM
COc1c(C)cc(-c2n[nH]c(=O)c3ccccc23)cc1C [Compound 11, 4-(4-Methoxy-3,5-dimethylphenyl)-1(2H)-phthalazinone]	> 20000 nM
Cc1cc(-c2n[nH]c(=O)c3ccccc23)cc(C)c1C(=O)O [Compound 13, 4-(4-Carboxylic-3,5-dimethylphenyl)-1(2H)-phthalazinone]	> 20000 nM
Cc1cc(-c2n[nH]c(=O)c3ccccc23)ccc1C(=O)O [Compound 14, 4-(4-Carboxylic-3-methylphenyl)-1(2H)-phthalazinone]	> 20000 nM
Cc1cc(-c2n[nH]c(=O)c3ccccc23)cc(C)c1N [Compound 15]	> 20000 nM
COC(=O)c1ccc(-c2n[nH]c(=O)c3ccccc23)cc1C [Compound 16, 4-(4-Carbomethoxyl-3-methylphenyl)-1(2H)-phthalazinone]	8510 ± 3150 nM
CC(=O)Oc1c(C)cc(-c2n[nH]c(=O)c3ccccc23)cc1C [Compound 17, 4-(4-Acetoxy-3,5-dimethylphenyl)-1(2H)-phthalazinone]	4760 ± 420 nM
CC(=O)Oc1ccc(-c2n[nH]c(=O)c3ccccc23)cc1C [Compound 18, 4-(4-Acetoxy-3-methylphenyl)-1(2H)-phthalazinone]	3770 ± 450 nM
O=c1[nH]nc(-c2ccc(O)cc2)c2ccccc12 [Compound 19, 4-(4-Hydroxyphenyl)phthalazin-1(2H)-one]	> 20000 nM
Cc1cc(-c2n[nH]c(=O)c3ccccc23)cc(C)c1O [Compound 20, 4-(4-Hydroxy-3,5-dimethylphenyl)-1(2H)-phthalazinone]	3910 ± 200 nM
Cc1cc(-c2n[nH]c(=O)c3ccccc23)ccc1O [Compound 21, 4-(4-Hydroxy-3-methylphenyl)-1(2H)-phthalazinone]	1300 ± 320 nM
CCc1cc(-c2n[nH]c(=O)c3ccccc23)ccc1O [Compound 22, 4-(4-Hydroxy-3-ethylphenyl)-1(2H)-phthalazinone]	2730 ± 850 nM
CC(C)c1cc(-c2n[nH]c(=O)c3ccccc23)cc(C(C)C)c1O [Compound 23, 4-(4-Hydroxy-3,5-diisopropylphenyl)-1(2H)-phthalazinone]	> 20000 nM
Cc1cc(-c2n[nH]c(=O)c3ccccc23)c(C)c(C)c1O [Compound 24, 4-(4-Hydroxy-2,3,5-trimethylphenyl)-1(2H)-phthalazinone]	> 20000 nM
O=c1[nH]nc(-c2ccc(O)c3ccccc23)c2ccccc12 [Compound 25, 4-(4-Hydroxy-naphthyl)-1(2H)-phthalazinone]	> 20000 nM
O=c1[nH]nc(-c2ccc(O)c(C(F)(F)F)c2)c2ccccc12 [Compound 26, 4-(4-Hydroxy-3-trifluoromethylphenyl)-1(2H)-phthalazinone]	> 20000 nM
COc1ccc(-c2n[nH]c(=O)c3ccccc23)cc1C(F)(F)F [Compound 27, 4-(4-Methoxyl-3-trifluoromethylphenyl)-1(2H)-phthalazinone]	> 20000 nM
N#Cc1cc(-c2n[nH]c(=O)c3ccccc23)ccc1O [Compound 28, 4-(4-Hydroxy-3-cyanophenyl)-1(2H)-phthalazinone]	> 20000 nM
COc1ccc(-c2n[nH]c(=O)c3ccccc23)cc1[N+](=O)[O-] [Compound 29, 4-(4-Methoxyl-3-nitrophenyl)-1(2H)-phthalazinone]	> 20000 nM

Same assay, conditions: HEK-Blue TLR8 cells

Compound	IC50	fold higher potency than 6c	fold higher potency than 6d
NC(=O)c1cnn2c(-c3cccc(C(F)(F)F)c3)ccnc12 [Compound 6a]		2 fold	10 fold
NC(=O)c1cnn2c(-c3cccnc3)ccnc12 [Compound 6l]	> 20000 nM		

Same assay, conditions: HEK-Blue TLR8 cells, R848 as agonist

Compound	IC50
NC(=O)c1cnn2c(-c3cccc(C(F)(F)F)c3)ccnc12 [Compound 6a]	130 nM
NC(=O)c1cnn2c(-c3ccccc3)ccnc12 [Compound 6e]	760 nM

Same assay, conditions: pyrazolo[1,5-a]pyrimidine derivatives in HEK-Blue hTLR8 cells; ± SD, at least three biological replicates

Compound	IC50
CCOC(=O)c1cnn2c(-c3cccc(C(F)(F)F)c3)ccnc12 [Compound 3a]	210 ± 43 nM
CCOC(=O)c1cnn2c(-c3cccc(C)c3)ccnc12 [Compound 3b]	92 ± 15 nM
NC(=O)c1cnn2c(-c3ccccc3C(F)(F)F)ccnc12 [Compound 6c]	230 ± 140 nM
NC(=O)c1cnn2c(-c3ccc(C(F)(F)F)cc3)ccnc12 [Compound 6d]	1220 nM
NC(=O)c1cnn2c(-c3cccc([N+](=O)[O-])c3)ccnc12 [Compound 6f]	220 ± 70 nM
NC(=O)c1cnn2c(-c3cccc(F)c3)ccnc12 [Compound 6g]	450 ± 90 nM
NC(=O)c1cnn2c(-c3cccc(Cl)c3)ccnc12 [Compound 6h]	280 ± 100 nM
NC(=O)c1cnn2c(-c3cc(C(F)(F)F)cc(C(F)(F)F)c3)ccnc12 [Compound 6i]	250 ± 130 nM
COc1ccccc1-c1ccnc2c(C(N)=O)cnn12 [Compound 6j]	2310 nM
COc1cccc(-c2ccnc3c(C(N)=O)cnn23)c1 [Compound 6k]	1200 nM
NC(=O)c1cnn2c(-c3cccnc3)ccnc12 [Compound 6l]	> 20000 nM
CCc1cccc(-c2ccnc3c(C(N)=O)cnn23)c1 [Compound 6m]	120 ± 23 nM
CNC(=O)c1cnn2c(-c3cccc(C(F)(F)F)c3)ccnc12 [Compound 6n]	1700 nM

Same assay, conditions: quinoline derivatives in HEK-Blue hTLR8 cells; ± SD, at least three biological replicates

Compound	IC50
Cc1cc(-c2ccc(O)c(C)c2)c2ccccc2n1 [Compound 11c]	86 ± 11 nM
Cc1cc(-c2cccc3ccccc23)ccc1O [Compound 11d]	> 20000 nM
O=c1[nH]nc(-c2ccccc2)c2ccccc12 [Compound 14a]	> 20000 nM
Cc1cc(-c2n[nH]c(=O)c3ccccc23)ccc1O [Compound 14b]	1300 ± 320 nM

Same assay, conditions: secondary amide analog versus primary amide

Compound	fold reduction in potency
CNC(=O)c1cnn2c(-c3cccc(C(F)(F)F)c3)ccnc12 [Compound 6n]	25 fold

Same assay, conditions: up to 20 μM

Compound	inhibitory activity against TLR8 signaling
Cc1cccc(-c2ccnc3c(C(=O)O)cnn23)c1 [Compound 4b]	did not show any inhibitory activity
CCN(CC)C(=O)c1cnn2c(-c3cccc(C(F)(F)F)c3)ccnc12 [Compound 6o]	no significant activity

— US11466010B2, “Toll-like receptor 8 (TLR8) specific antagonists and methods of making and uses thereof” (The Regents of the University of Colorado, a body corporate, priority 2017, dated 2022)
